Reference: patent publication US20250213183A1, “SYSTEM AND METHOD OF MONITORING NOCICEPTION AND ANALGESIA DURING ADMINISTRATION OF GENERAL ANESTHESIA” (The General Hospital Corporation, priority 2022, published 2025)

Details: single subject, forehead sensor, after propofol; FIG. 6B

CC(C)c1cccc(C(C)C)c1O [propofol]
EDA skin conductance response (SCR) after induction of general anesthesia: < 5 micro-Siemens
